Reference: patent US11000033B2, “Ketone or oxime compound, and herbicide” (NISSAN CHEMICAL CORPORATION, priority 2014, dated 2021)

Tests used:
Format in all cases: in vivo
[1] = system: Echinochloa oryzacola Vasing.; test: Test Example 2: herbicidal activity, application during weed generation in submerged conditions (symbol A); conditions: Table 23; application herbicide amount 320 g/ha; grade 0-5 by criteria of Test Example 1
In short: (§1)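 Alluvial soil in pots was flooded to a 4 cm water depth and sown with a mix of the three weed species, then grown in a greenhouse at 25° C. to 30° C. At the one- to two-leaf stage, an emulsifiable formulation diluted in water to a set dose was applied to the water surface. Effects were scored visually 3 weeks later.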

Monochoria vaginalis = test: Test Example 2: herbicidal activity, application during weed generation in submerged conditions (symbol C); conditions: Table 23; application herbicide amount 320 g/ha; grade 0-5 by criteria of Test Example 1
In short: as §1

[2] = system: Echinochloa crus-galli var. crus-galli; test: Test Example 3: herbicidal effect by foliage application, Wagner pot (symbol H); conditions: application herbicide amount 320 g/ha; for H (Echinochloa crus-galli var. crus-galli) herbicidal effect grade: Table 24
In short: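 Weeds and rice were sown in alluvial soil under 0.1–0.5 cm of standing water and grown for 14 days in a 25–30 °C greenhouse. An emulsion of the compound, diluted in water to a set dose, was sprayed evenly onto the foliage. Effect was scored against fixed criteria 3 weeks after treatment.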

Digitaria ciliaris = test: Test Example 4: herbicidal effect by soil treatment (symbol F)
In short: (§2)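 Seeds were sown in sterilized diluvial soil, covered with about 1.5 cm of soil, and the soil surface was sprayed with a water-diluted emulsion of the compound at a predetermined rate. Plants grew in a greenhouse at 25° C. to 30° C.; effects were scored visually 3 weeks after application.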

Lolium multiflorum Lam. = test: Test Example 4: herbicidal effect by soil treatment (symbol K)
In short: as §2

Apera spica-venti [3] = test: Test Example 4: herbicidal effect by soil treatment (symbol L)
In short: as §2

Abutilon theophrasti [4] = test: Test Example 4: herbicidal effect by soil treatment (symbol M)
In short: as §2

Chenopodium album [5] = test: Test Example 4: herbicidal effect by soil treatment (symbol O)
In short: as §2

Galium spurium = test: Test Example 4: herbicidal effect by soil treatment (symbol Q)
In short: as §2

soybean = test: Test Example 4: effect on crop by soil treatment (symbol d)
In short: (§3)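 Grown at 25° C. to 30° C. in a greenhouse, the crops came from seed sown spot-wise in sterilized diluvial soil under roughly 1.5 cm of covering soil.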

beet = test: Test Example 4: effect on crop by soil treatment (symbol f)
In short: as §3

Avena fatua = test: Test Example 5: herbicidal effect by foliage application, plastic box (symbol I); conditions: 320 g/ha, 3 weeks after application
In short: (§4)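 Visual herbicidal score, taken three weeks post-application, of seedlings sprayed on the foliage with water-diluted emulsion at a predetermined amount; plants were 14 days old, greenhouse-raised at 25° C. to 30° C.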

Apera spica-venti [6] = test: Test Example 5: herbicidal effect by foliage application, plastic box (symbol L); conditions: 320 g/ha, 3 weeks after application
In short: as §4

Abutilon theophrasti [7] = test: Test Example 5: herbicidal effect by foliage application, plastic box (symbol M); conditions: 320 g/ha, 3 weeks after application
In short: as §4

Chenopodium album [8] = test: Test Example 5: herbicidal effect by foliage application, plastic box (symbol O); conditions: 320 g/ha, 3 weeks after application
In short: as §4

Stellaria media = test: Test Example 5: herbicidal effect by foliage application, plastic box (symbol P); conditions: 320 g/ha, 3 weeks after application
In short: as §4

Veronica persica = test: Test Example 5: herbicidal effect by foliage application, plastic box (symbol R); conditions: 320 g/ha, 3 weeks after application
In short: as §4

rice plant = test: Test Example 5: effect on crop by foliage application, plastic box (symbol b); conditions: 320 g/ha, 3 weeks after application
In short: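 Seeds were sown in spots in sterilized diluvial soil held in a plastic box 21 cm × 13 cm × 7 cm deep, covered with about 1.5 cm of soil, and grown in a greenhouse at 25° C. to 30° C.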

Setaria viridis = test: Test Example 4: herbicidal effect by soil treatment (symbol G)
In short: as §2

[9] = application herbicide amount 320 g/ha

CCC(CC1CC(O)=C(c2c(C)cc(Br)cc2OC)C1=O)=NOC (mixture of isomers) [13-001]
Herbicidal effect grade, A: Echinochloa oryzacola Vasing. [1]: 5 (Herbicidal ratio of 90% or more (almost completely withered)) | Herbicidal effect grade, C: Monochoria vaginalis (Monochoria vaginalis): 0 (Herbicidal ratio of 5% or lower (almost no effect)) | H (Echinochloa crus-galli var. crus-galli) herbicidal effect grade [2]: 5 (Herbicidal ratio of 90% or more (almost completely withered)) | F: Digitaria ciliaris, herbicidal effect grade (Digitaria ciliaris; [9]): 5 (Herbicidal ratio of 90% or more (almost completely withered)) | K: Lolium multiflorum Lam., herbicidal effect grade (Lolium multiflorum Lam.; [9]): 5 (Herbicidal ratio of 90% or more (almost completely withered)) | L: Apera spica-venti, herbicidal effect grade (Apera spica-venti [3]; [9]): 5 (Herbicidal ratio of 90% or more (almost completely withered)) | M: Abutilon theophrasti, herbicidal effect grade (Abutilon theophrasti [4]; [9]): 0 (Herbicidal ratio of 5% or lower (almost no effect)) | O: Chenopodium album, herbicidal effect grade (Chenopodium album [5]; [9]): 0 (Herbicidal ratio of 5% or lower (almost no effect)) | Q: Galium spurium, herbicidal effect grade (Galium spurium; [9]): 0 (Herbicidal ratio of 5% or lower (almost no effect)) | d: soybean, effect on crop grade (soybean; [9]): 0 (Herbicidal ratio of 5% or lower (almost no effect)) | f: beet, effect on crop grade (beet; [9]): 0 (Herbicidal ratio of 5% or lower (almost no effect)) | I: Avena fatua, herbicidal effect grade (Avena fatua): 5 (Herbicidal ratio of 90% or more (almost completely withered)) | L: Apera spica-venti, herbicidal effect grade (Apera spica-venti [6]): 5 (Herbicidal ratio of 90% or more (almost completely withered)) | M: Abutilon theophrasti, herbicidal effect grade (Abutilon theophrasti [7]): 1 (Herbicidal ratio of 5% or higher and lower than 20%) | O: Chenopodium album, herbicidal effect grade (Chenopodium album [8]): 0 (Herbicidal ratio of 5% or lower (almost no effect)) | P: Stellaria media, herbicidal effect grade (Stellaria media): 0 (Herbicidal ratio of 5% or lower (almost no effect)) | R: Veronica persica, herbicidal effect grade (Veronica persica): 0 (Herbicidal ratio of 5% or lower (almost no effect)) | b: directly sowed rice plant, effect on crop grade (rice plant): 5 (Herbicidal ratio of 90% or more (almost completely withered))

CON=C(C)CC1CC(OC(=O)C(C)(C)C)=C(c2c(C)cc(C)cc2C)C1=O (stereo not drawn) [1-004, 2-mesityl-4-{2-(methoxyimino)propyl}-3-oxocyclopent-1-en-1-yl pivalate]
Herbicidal effect grade, A: Echinochloa oryzacola Vasing. [1]: 5 (Herbicidal ratio of 90% or more (almost completely withered)) | Herbicidal effect grade, C: Monochoria vaginalis (Monochoria vaginalis): 4 (Herbicidal ratio of 70% or higher and lower than 90%) | herbicidal effect on H (Echinochloa crus-galli var. crus-galli), grade 0-5 [2]: 5 (Herbicidal ratio of 90% or more (almost completely withered)) | F (Digitaria ciliaris) herbicidal effect grade (Digitaria ciliaris; [9]): 5 (Herbicidal ratio of 90% or more (almost completely withered)) | G (Setaria viridis) herbicidal effect grade (Setaria viridis; [9]): 5 (Herbicidal ratio of 90% or more (almost completely withered)) | K (Lolium multiflorum Lam.) herbicidal effect grade (Lolium multiflorum Lam.; [9]): 5 (Herbicidal ratio of 90% or more (almost completely withered)) | L (Apera spica-venti) herbicidal effect grade (Apera spica-venti [3]; [9]): 5 (Herbicidal ratio of 90% or more (almost completely withered)) | M (Abutilon theophrasti) herbicidal effect grade (Abutilon theophrasti [4]; [9]): 5 (Herbicidal ratio of 90% or more (almost completely withered)) | O (Chenopodium album) herbicidal effect grade (Chenopodium album [5]; [9]): 0 (Herbicidal ratio of 5% or lower (almost no effect)) | Q (Galium spurium) herbicidal effect grade (Galium spurium; [9]): 0 (Herbicidal ratio of 5% or lower (almost no effect)) | d (soybean) effect on crop grade (soybean; [9]): 3 (Herbicidal ratio of 40% or higher and lower than 70%) | f (beet) effect on crop grade (beet; [9]): 4 (Herbicidal ratio of 70% or higher and lower than 90%) | I: Avena fatua, herbicidal effect grade (Avena fatua): 5 (Herbicidal ratio of 90% or more (almost completely withered)) | L: Apera spica-venti, herbicidal effect grade (Apera spica-venti [6]): 5 (Herbicidal ratio of 90% or more (almost completely withered)) | M: Abutilon theophrasti, herbicidal effect grade (Abutilon theophrasti [7]): 4 (Herbicidal ratio of 70% or higher and lower than 90%) | O: Chenopodium album, herbicidal effect grade (Chenopodium album [8]): 3 (Herbicidal ratio of 40% or higher and lower than 70%) | R: Veronica persica, herbicidal effect grade (Veronica persica): 4 (Herbicidal ratio of 70% or higher and lower than 90%) | b: directly sowed rice plant, effect on crop grade (rice plant): 5 (Herbicidal ratio of 90% or more (almost completely withered))

C=C(C)CN(CC)C(=O)OC1=C(c2c(C)cc(C)cc2C)C(=O)C(CC(C)=NOC)C1 (stereo not drawn) [1-130]
Herbicidal effect grade, A: Echinochloa oryzacola Vasing. [1]: 1 (Herbicidal ratio of 5% or higher and lower than 20%) | Herbicidal effect grade, C: Monochoria vaginalis (Monochoria vaginalis): 0 (Herbicidal ratio of 5% or lower (almost no effect)) | herbicidal effect on H (Echinochloa crus-galli var. crus-galli), grade 0-5 [2]: 4 (Herbicidal ratio of 70% or higher and lower than 90%) | F: Digitaria ciliaris, herbicidal effect grade (Digitaria ciliaris; 320 g/ha): 0 (Herbicidal ratio of 5% or lower (almost no effect)) | G: Setaria viridis, herbicidal effect grade (Setaria viridis; 320 g/ha): 0 (Herbicidal ratio of 5% or lower (almost no effect)) | K: Lolium multiflorum Lam., herbicidal effect grade (Lolium multiflorum Lam.; 320 g/ha): 3 (Herbicidal ratio of 40% or higher and lower than 70%) | L: Apera spica-venti, herbicidal effect grade (Apera spica-venti [3]; 320 g/ha): 3 (Herbicidal ratio of 40% or higher and lower than 70%) | M: Abutilon theophrasti, herbicidal effect grade (Abutilon theophrasti [4]; 320 g/ha): 0 (Herbicidal ratio of 5% or lower (almost no effect)) | O: Chenopodium album, herbicidal effect grade (Chenopodium album [5]; 320 g/ha): 0 (Herbicidal ratio of 5% or lower (almost no effect)) | Q: Galium spurium, herbicidal effect grade (Galium spurium; 320 g/ha): 0 (Herbicidal ratio of 5% or lower (almost no effect)) | d: soybean, effect grade on crop (soybean; 320 g/ha): 0 (Herbicidal ratio of 5% or lower (almost no effect)) | f: beet, effect grade on crop (beet; 320 g/ha): 0 (Herbicidal ratio of 5% or lower (almost no effect)) | I: Avena fatua, herbicidal effect (criteria 0-5) (Avena fatua): 5 (Herbicidal ratio of 90% or more (almost completely withered)) | L: Apera spica-venti, herbicidal effect (criteria 0-5) (Apera spica-venti [6]): 5 (Herbicidal ratio of 90% or more (almost completely withered)) | M: Abutilon theophrasti, herbicidal effect (criteria 0-5) (Abutilon theophrasti [7]): 0 (Herbicidal ratio of 5% or lower (almost no effect)) | P: Stellaria media, herbicidal effect (criteria 0-5) (Stellaria media): 0 (Herbicidal ratio of 5% or lower (almost no effect)) | R: Veronica persica, herbicidal effect (criteria 0-5) (Veronica persica): 0 (Herbicidal ratio of 5% or lower (almost no effect)) | b: directly sowed rice plant, effect on crop (criteria 0-5) (rice plant): 5 (Herbicidal ratio of 90% or more (almost completely withered))

CC#Cc1cc(C)c(C2=C(O)CC(CC(=NOCCOC)C3CC3)C2=O)c(C)c1 (stereo not drawn) [9-021]
Herbicidal effect grade, A: Echinochloa oryzacola Vasing. [1]: 5 (Herbicidal ratio of 90% or more (almost completely withered)) | H (Echinochloa crus-galli var. crus-galli) herbicidal effect grade [2]: 5 (Herbicidal ratio of 90% or more (almost completely withered)) | Herbicidal effect grade, F: Digitaria ciliaris (Digitaria ciliaris; [9]): 5 (Herbicidal ratio of 90% or more (almost completely withered)) | Herbicidal effect grade, G: Setaria viridis (Setaria viridis; [9]): 5 (Herbicidal ratio of 90% or more (almost completely withered)) | Herbicidal effect grade, K: Lolium multiflorum Lam. (Lolium multiflorum Lam.; [9]): 5 (Herbicidal ratio of 90% or more (almost completely withered)) | Herbicidal effect grade, L: Apera spica-venti (Apera spica-venti [3]; [9]): 5 (Herbicidal ratio of 90% or more (almost completely withered)) | Herbicidal effect grade, M: Abutilon theophrasti (Abutilon theophrasti [4]; [9]): 1 (Herbicidal ratio of 5% or higher and lower than 20%) | Herbicidal effect grade, O: Chenopodium album (Chenopodium album [5]; [9]): 0 (Herbicidal ratio of 5% or lower (almost no effect)) | Herbicidal effect grade, Q: Galium spurium (Galium spurium; [9]): 0 (Herbicidal ratio of 5% or lower (almost no effect)) | Effect on crop grade, d: soybean (soybean; [9]): 0 (Herbicidal ratio of 5% or lower (almost no effect)) | Effect on crop grade, f: beet (beet; [9]): 0 (Herbicidal ratio of 5% or lower (almost no effect)) | I: Avena fatua, herbicidal effect grade (Avena fatua): 4 (Herbicidal ratio of 70% or higher and lower than 90%) | L: Apera spica-venti, herbicidal effect grade (Apera spica-venti [6]): 5 (Herbicidal ratio of 90% or more (almost completely withered)) | M: Abutilon theophrasti, herbicidal effect grade (Abutilon theophrasti [7]): 2 (Herbicidal ratio of 20% or higher and lower than 40%) | O: Chenopodium album, herbicidal effect grade (Chenopodium album [8]): 3 (Herbicidal ratio of 40% or higher and lower than 70%) | P: Stellaria media, herbicidal effect grade (Stellaria media): 1 (Herbicidal ratio of 5% or higher and lower than 20%) | R: Veronica persica, herbicidal effect grade (Veronica persica): 4 (Herbicidal ratio of 70% or higher and lower than 90%) | b: directly sowed rice plant, effect on crop grade (rice plant): 5 (Herbicidal ratio of 90% or more (almost completely withered))
